This passage reports IC50 results from US12447153B2, “HER2 mutation inhibitors” (Array BioPharma Inc., priority 2021, dated 2025).

The IC50 is the concentration needed to halve the response being measured. A lower IC50 goes with inhibition by little substance.

Where only a bound is given, the exact number is not on record here.

Assay [1] addresses EGFR (Homo sapiens (Human), UniProt P00533). Kind of assay: ErbB Enzyme Assay (HTRF KinEASE-TK), Assay 3. The format is biochemical. In general terms: Time-resolved FRET reads energy transfer from a long-lived donor to a nearby acceptor.
Assay [2] addresses EGFR wild type (EGFR WT) (Homo sapiens (Human), UniProt P00533). Kind of assay: Cellular Phosphorylation Assay, Assay 5 (EGF-stimulated EGFR phosphorylation, NIH 3T3 cells). The format is cell-based.
The target of assay [3] is ErbB2 WT (Homo sapiens (Human), UniProt P04626). Kind of assay: ErbB Enzyme Assay (HTRF KinEASE-TK), Assay 2. The format is biochemical.
Sequence of ErbB2 WT (P04626 23-1255): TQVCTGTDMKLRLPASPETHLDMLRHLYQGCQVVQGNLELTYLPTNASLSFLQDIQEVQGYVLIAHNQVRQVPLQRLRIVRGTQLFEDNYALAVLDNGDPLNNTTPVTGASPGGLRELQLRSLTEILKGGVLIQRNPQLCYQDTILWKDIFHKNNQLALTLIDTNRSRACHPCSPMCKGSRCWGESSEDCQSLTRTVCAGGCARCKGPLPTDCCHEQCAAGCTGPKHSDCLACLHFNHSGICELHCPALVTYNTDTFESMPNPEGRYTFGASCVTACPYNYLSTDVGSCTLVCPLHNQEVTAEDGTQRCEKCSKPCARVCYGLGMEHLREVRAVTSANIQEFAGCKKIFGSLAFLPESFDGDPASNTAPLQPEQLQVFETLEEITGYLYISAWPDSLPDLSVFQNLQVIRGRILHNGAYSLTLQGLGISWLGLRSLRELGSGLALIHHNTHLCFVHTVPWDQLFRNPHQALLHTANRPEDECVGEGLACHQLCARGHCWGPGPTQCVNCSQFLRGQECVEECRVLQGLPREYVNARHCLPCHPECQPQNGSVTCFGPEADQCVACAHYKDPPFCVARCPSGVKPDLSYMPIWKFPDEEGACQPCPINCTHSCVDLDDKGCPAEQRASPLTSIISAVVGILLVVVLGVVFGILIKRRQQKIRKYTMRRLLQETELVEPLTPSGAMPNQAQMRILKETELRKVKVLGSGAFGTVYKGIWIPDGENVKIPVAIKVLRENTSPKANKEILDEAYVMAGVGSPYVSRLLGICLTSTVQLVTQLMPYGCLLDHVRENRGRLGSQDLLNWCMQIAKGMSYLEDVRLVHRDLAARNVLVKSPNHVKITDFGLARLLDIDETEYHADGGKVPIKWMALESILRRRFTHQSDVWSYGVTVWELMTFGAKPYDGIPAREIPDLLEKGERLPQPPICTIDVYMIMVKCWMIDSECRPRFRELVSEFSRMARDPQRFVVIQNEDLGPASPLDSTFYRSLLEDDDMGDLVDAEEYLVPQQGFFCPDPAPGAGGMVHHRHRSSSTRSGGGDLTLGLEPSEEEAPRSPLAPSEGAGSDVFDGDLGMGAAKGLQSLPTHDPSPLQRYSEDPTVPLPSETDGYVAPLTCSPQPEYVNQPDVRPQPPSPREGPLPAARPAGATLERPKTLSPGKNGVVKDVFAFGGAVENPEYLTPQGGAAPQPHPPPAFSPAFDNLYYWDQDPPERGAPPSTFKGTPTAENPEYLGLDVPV
The target of assay [4] is ErbB2 with Exon 20 YVMA insertion (HER2-YVMA) (Homo sapiens (Human), UniProt P04626, INS775YVMA). Put plainly: Cellular Phosphorylation Assay, Assay 4 (constitutive ErbB2 phosphorylation, NIH 3T3 cells). The format is cell-based.
Sequence of ErbB2 with Exon 20 YVMA insertion (HER2-YVMA) (P04626 other isoform, or with tags, fused parts or gaps ins YVMA behind 775): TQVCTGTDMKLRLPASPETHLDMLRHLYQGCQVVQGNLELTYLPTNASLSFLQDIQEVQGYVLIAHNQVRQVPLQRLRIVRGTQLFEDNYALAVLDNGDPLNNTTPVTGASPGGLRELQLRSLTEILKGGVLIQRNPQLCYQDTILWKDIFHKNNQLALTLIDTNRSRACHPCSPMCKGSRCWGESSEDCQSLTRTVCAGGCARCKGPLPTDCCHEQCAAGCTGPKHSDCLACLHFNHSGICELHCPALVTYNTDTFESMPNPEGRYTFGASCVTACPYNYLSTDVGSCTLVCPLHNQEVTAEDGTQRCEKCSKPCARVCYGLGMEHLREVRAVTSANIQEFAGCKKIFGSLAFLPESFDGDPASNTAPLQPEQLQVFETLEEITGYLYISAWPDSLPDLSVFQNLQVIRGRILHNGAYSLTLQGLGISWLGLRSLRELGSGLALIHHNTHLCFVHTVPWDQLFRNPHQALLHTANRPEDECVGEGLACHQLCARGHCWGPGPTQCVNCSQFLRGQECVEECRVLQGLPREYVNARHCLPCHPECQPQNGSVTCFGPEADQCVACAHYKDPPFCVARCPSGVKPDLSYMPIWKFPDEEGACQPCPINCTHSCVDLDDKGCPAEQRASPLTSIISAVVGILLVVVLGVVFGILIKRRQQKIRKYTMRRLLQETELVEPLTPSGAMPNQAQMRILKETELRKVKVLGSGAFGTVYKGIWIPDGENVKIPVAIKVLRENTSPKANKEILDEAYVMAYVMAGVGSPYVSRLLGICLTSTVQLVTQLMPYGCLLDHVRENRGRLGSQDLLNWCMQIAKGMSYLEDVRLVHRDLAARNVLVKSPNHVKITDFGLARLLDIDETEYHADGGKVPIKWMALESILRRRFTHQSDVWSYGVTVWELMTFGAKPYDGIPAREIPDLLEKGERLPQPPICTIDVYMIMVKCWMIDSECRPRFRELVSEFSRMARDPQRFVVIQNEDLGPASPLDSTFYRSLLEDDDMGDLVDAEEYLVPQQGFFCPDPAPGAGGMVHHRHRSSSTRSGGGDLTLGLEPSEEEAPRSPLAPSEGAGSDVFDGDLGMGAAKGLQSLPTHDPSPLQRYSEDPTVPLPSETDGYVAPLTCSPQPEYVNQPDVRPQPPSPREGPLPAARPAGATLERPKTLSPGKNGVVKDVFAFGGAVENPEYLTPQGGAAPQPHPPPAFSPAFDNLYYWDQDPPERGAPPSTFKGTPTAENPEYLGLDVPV
The mark [5] stands for this setting: cellular EGFR WT phosphorylation, EGF-stimulated.
Where [6] appears, read: cellular ErbB2 YVMA phosphorylation.
[7] abbreviates: EGF-stimulated EGFR WT phosphorylation.

Sequence of EGFR wild type (EGFR WT) (P00533 25-1210): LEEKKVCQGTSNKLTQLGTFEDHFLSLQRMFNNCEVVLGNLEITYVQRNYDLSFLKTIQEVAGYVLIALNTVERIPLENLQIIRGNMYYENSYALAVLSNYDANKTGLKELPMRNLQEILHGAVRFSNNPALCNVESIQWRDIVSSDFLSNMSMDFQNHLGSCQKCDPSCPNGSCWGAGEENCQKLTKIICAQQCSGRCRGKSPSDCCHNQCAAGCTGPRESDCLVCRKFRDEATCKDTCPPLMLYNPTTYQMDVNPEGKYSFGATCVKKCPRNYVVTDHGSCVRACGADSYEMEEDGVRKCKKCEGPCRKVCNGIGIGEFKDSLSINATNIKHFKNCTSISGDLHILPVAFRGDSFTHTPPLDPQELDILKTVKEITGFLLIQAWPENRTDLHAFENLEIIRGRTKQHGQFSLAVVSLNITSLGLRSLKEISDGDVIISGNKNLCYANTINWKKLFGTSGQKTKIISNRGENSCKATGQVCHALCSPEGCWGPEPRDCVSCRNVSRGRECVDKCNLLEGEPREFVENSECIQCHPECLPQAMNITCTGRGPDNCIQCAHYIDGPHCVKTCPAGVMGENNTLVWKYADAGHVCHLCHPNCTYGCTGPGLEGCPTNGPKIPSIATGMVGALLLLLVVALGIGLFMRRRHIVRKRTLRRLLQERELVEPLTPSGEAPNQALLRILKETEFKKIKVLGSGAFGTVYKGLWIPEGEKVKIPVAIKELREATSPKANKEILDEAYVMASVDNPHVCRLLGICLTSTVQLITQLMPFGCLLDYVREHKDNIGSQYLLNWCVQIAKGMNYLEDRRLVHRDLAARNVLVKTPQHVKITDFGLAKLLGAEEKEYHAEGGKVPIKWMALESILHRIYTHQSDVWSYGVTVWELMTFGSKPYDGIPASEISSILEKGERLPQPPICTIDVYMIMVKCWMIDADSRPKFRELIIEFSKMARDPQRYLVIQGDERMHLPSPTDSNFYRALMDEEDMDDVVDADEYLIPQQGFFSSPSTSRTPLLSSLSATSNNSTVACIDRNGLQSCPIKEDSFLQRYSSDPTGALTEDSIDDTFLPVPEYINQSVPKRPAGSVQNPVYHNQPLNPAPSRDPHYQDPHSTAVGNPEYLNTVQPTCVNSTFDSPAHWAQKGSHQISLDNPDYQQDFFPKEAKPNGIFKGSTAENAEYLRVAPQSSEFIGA
Sequence of EGFR (P00533 25-1210): as above

Consider `C=CC(=O)N1[C@H]2CC[C@@H]1[C@H](c1ccc3ncnc(Nc4cc(C)c(Oc5ccn6ncnc6c5)cc4F)c3n1)CC2` [Example 428], for which the concentration for half-maximal inhibition (IC50) in assay [1] (EGFR enzyme assay) worked out at 1480 nM; in assay [2] (setting [5]), 954 nM; in assay [3] (ErbB2 WT enzyme assay) it was 62.4 nM; in assay [4] (setting [6]), 24.7 nM.

Take `C=CC(=O)N1CCN(c2ccc3ncnc(Nc4ccc(Oc5ccc6c(c5)ncn6C)c(C)c4F)c3n2)C[C@@H]1C1CC1` [Example 162, (S)-1-(2-cyclopropyl-4-(4-((2-fluoro-3-methyl-4-((1-methyl-1H-benzo[d]imidazol-5-yl)oxy)phenyl)amino)pyrido[3,2-d]pyrimidin-6-yl)piperazin-1-yl)prop-2-en-1-one]: the half-inhibitory concentration (IC50) is no less than 10000 nM in assay [1] (EGFR enzyme), no less than 5000 nM in assay [2] (setting [7]), 342 nM in assay [3] (ErbB2 WT enzyme) and 25.7 nM in assay [4] (ErbB2 YVMA phosphorylation).

On to `C=CC(=O)N1CCC[C@@H](c2ccc3ncnc(Nc4ccc(Oc5ccn6ncnc6c5)c(C)c4F)c3n2)CC1` (single isomer, unassigned) [Example 209], for which the half-inhibitory concentration (IC50) stood at 872 nM in assay [1] (EGFR enzyme), 503 nM in assay [2] (setting [7]), 16.4 nM in assay [3] (ErbB2 WT enzyme) and 20.1 nM in assay [4] (ErbB2 YVMA phosphorylation).

On to `C=CC(=O)N1CCCC(c2ccc3ncnc(Nc4ccc(Oc5ccn6ncnc6c5)c(C)c4F)c3n2)C1` (centres unmarked) [Example 198, 1-(3-(4-((4-([1,2,4]triazolo[1,5-a]pyridin-7-yloxy)-2-fluoro-3-methylphenyl)amino)pyrido[3,2-d]pyrimidin-6-yl)piperidin-1-yl)prop-2-en-1-one], for which the concentration for half-maximal inhibition (IC50) in assay [1] (EGFR enzyme) came out at 342 nM; in assay [2] (setting [7]), 809 nM; in assay [3] (ErbB2 WT enzyme), 24.2 nM; in assay [4] (ErbB2 YVMA phosphorylation) it was 17 nM.

`C=CC(=O)N1C2CCC1CN(c1ccc3ncnc(Nc4ccc(Oc5ccn6ncnc6c5)c(Cl)c4F)c3n1)C2` [Example 238, 1-(3-(4-((4-([1,2,4]triazolo[1,5-a]pyridin-7-yloxy)-3-chloro-2-fluorophenyl)amino)pyrido[3,2-d]pyrimidin-6-yl)-3,8-diazabicyclo[3.2.1]octan-8-yl)prop-2-en-1-one]: the concentration for half-maximal inhibition (IC50) in assay [1] (EGFR enzyme) stood at 114 nM; in assay [2] (setting [7]), 90.3 nM; in assay [3] (ErbB2 WT enzyme) it was 11.7 nM; in assay [4] (ErbB2 YVMA phosphorylation), 5.5 nM.

For `C=CC(=O)N1CC[C@H]2C[C@@H]1CN2c1ccc2ncnc(Nc3ccc(Oc4ccc5c(c4)ncn5C)c(C)c3F)c2n1` [Example 67, 1-((1R,5S)-6-(4-((2-fluoro-3-methyl-4-((1-methyl-1H-benzo[d]imidazol-5-yl)oxy)phenyl)amino)pyrido[3,2-d]pyrimidin-6-yl)-2,6-diazabicyclo[3.2.1]octan-2-yl)prop-2-en-1-one], the IC50 was no less than 10000 nM in assay [1] (EGFR enzyme), no less than 5000 nM in assay [2] (setting [7]), 422 nM in assay [3] (ErbB2 WT enzyme) and 35.8 nM in assay [4] (ErbB2 YVMA phosphorylation).

In the case of `C=CC(=O)N1CCC2CN(c3nc4c(Nc5ccc(Oc6ccn7ncnc7c6)c(Cl)c5F)ncnc4cc3OC)CC21` (centres unmarked) [Example 38, 1-(5-(4-((4-([1,2,4]triazolo[1,5-a]pyridin-7-yloxy)-3-chloro-2-fluorophenyl)amino)-7-methoxypyrido[3,2-d]pyrimidin-6-yl)hexahydropyrrolo[3,4-b]pyrrol-1(2H)-yl)prop-2-en-1-one], the IC50 in assay [1] (EGFR enzyme) turned out to be 153 nM; in assay [2] (setting [7]) it was 382 nM; in assay [3] (ErbB2 WT enzyme) it was 8.5 nM; in assay [4] (ErbB2 YVMA phosphorylation), 22.6 nM.

Take `C=CC(=O)N1C[C@H](c2ccc3ncnc(Nc4cc(C)c(Oc5ccn6ncnc6c5)cc4F)c3n2)C[C@H]1C` (mixture of isomers) [Example 386]: the 50% inhibitory concentration (IC50) is no less than 10000 nM in assay [1] (EGFR enzyme assay), no less than 5000 nM in assay [2] (setting [5]), 220 nM in assay [3] (ErbB2 WT enzyme assay) and 235 nM in assay [4] (setting [6]).

In the case of `C=CC(=O)N1CCN(c2ccc3ncnc(Nc4ccc(Oc5ccn6ncnc6c5)c(Cl)c4F)c3n2)C[C@H]1C(C)C` [Example 291], the IC50 in assay [1] (EGFR enzyme assay) is 462 nM; in assay [2] (setting [5]) it was 276 nM; in assay [3] (ErbB2 WT enzyme assay) it was 14.9 nM; in assay [4] (setting [6]), 9.5 nM.

For `C=CC(=O)N1CCC(Oc2ccc3ncnc(Nc4ccc(Oc5cnn6c(C)cnc6c5)c(Cl)c4F)c3n2)CC1` [Example 53, 1-(4-((4-((3-chloro-2-fluoro-4-((3-methylimidazo[1,2-b]pyridazin-7-yl)oxy)phenyl)amino)pyrido[3,2-d]pyrimidin-6-yl)oxy)piperidin-1-yl)prop-2-en-1-one], the IC50 amounted to 1450 nM in assay [1] (EGFR enzyme), 1240 nM in assay [2] (setting [7]), 99.1 nM in assay [3] (ErbB2 WT enzyme) and 41.1 nM in assay [4] (ErbB2 YVMA phosphorylation).

Take `CC#CC(=O)N1CCC[C@@H](c2ccc3ncnc(Nc4ccc(Oc5ccn6ncnc6c5)c(C)c4F)c3n2)CC1` (single isomer, unassigned) [Example 212]: the IC50 in assay [1] (EGFR enzyme) is 3380 nM; in assay [2] (setting [7]), no less than 5000 nM; in assay [3] (ErbB2 WT enzyme), 66.2 nM; in assay [4] (ErbB2 YVMA phosphorylation), 386 nM.

Turning to `C=CC(=O)N1C[C@H]2CC[C@@H]1C[C@@H]2c1ccc2ncnc(Nc3ccc(Oc4ccn5ncnc5c4)c(C)c3F)c2n1` (single isomer, unassigned) [Example 234], the IC50 was 960 nM in assay [1] (EGFR enzyme), 875 nM in assay [2] (setting [7]), 37.3 nM in assay [3] (ErbB2 WT enzyme) and 33 nM in assay [4] (ErbB2 YVMA phosphorylation).

In the case of `C=CC(=O)N1CCC12CN(c1ccc3ncnc(Nc4cc(Cl)c(Oc5ccn6ncnc6c5)cc4F)c3n1)C2` [Example 343], the IC50 in assay [1] (EGFR enzyme assay) was determined as 841 nM; in assay [2] (setting [5]), 372 nM; in assay [3] (ErbB2 WT enzyme assay), 44.6 nM; in assay [4] (setting [6]), 9.4 nM.

As for `C=CC(=O)N1C[C@@H]2C[C@H]1C[C@H]2c1ccc2ncnc(Nc3cc(C)c(Oc4ccn5ncnc5c4)cc3F)c2n1` [Example 373], the IC50 in assay [1] (EGFR enzyme assay) was determined as 1580 nM; in assay [2] (setting [5]) it was 3360 nM; in assay [3] (ErbB2 WT enzyme assay), 55.5 nM; in assay [4] (setting [6]) it was 44 nM.

For `CC#CC(=O)N1CCC[C@@H](c2ccc3ncnc(Nc4ccc(Oc5ccn6ncnc6c5)c(C)c4F)c3n2)CC1` (single isomer, unassigned) [Example 211], the IC50 in assay [1] (EGFR enzyme) was 5400 nM; in assay [2] (setting [7]), no less than 5000 nM; in assay [3] (ErbB2 WT enzyme), 65.4 nM; in assay [4] (ErbB2 YVMA phosphorylation), 317 nM.

As for `CC#CC(=O)N1CCN(c2ccc3ncnc(Nc4ccc(Oc5ccn6ncnc6c5)c(C)c4F)c3n2)CC1(C)C` [Example 179, 1-(4-(4-((4-([1,2,4]triazolo[1,5-a]pyridin-7-yloxy)-2-fluoro-3-methylphenyl)amino)pyrido[3,2-d]pyrimidin-6-yl)-2,2-dimethylpiperazin-1-yl)but-2-yn-1-one], the half-maximal inhibitory concentration (IC50) in assay [1] (EGFR enzyme) is 7630 nM; in assay [2] (setting [7]), no less than 5000 nM; in assay [3] (ErbB2 WT enzyme), 74 nM; in assay [4] (ErbB2 YVMA phosphorylation), 103 nM.

Consider `C=CC(=O)N1[C@@H]2CC[C@H]1CC(c1ccc3ncnc(Nc4cc(C)c(Oc5ccn6ncnc6c5)cc4F)c3n1)C2` (stereo partly drawn) [Example 194, 1-((1R,5S)-3-(4-((4-([1,2,4]triazolo[1,5-a]pyridin-7-yloxy)-2-fluoro-5-methylphenyl)amino)pyrido[3,2-d]pyrimidin-6-yl)-8-azabicyclo[3.2.1]octan-8-yl)prop-2-en-1-one], for which the 50% inhibitory concentration (IC50) was 5800 nM in assay [1] (EGFR enzyme), 2780 nM in assay [2] (setting [7]), 171 nM in assay [3] (ErbB2 WT enzyme) and 33.9 nM in assay [4] (ErbB2 YVMA phosphorylation).

`C=CC(=O)N1C[C@H]2C[C@@H]1CN2c1ccc2ncnc(Nc3cc(C)c(Oc4ccn5ncnc5c4)cc3F)c2n1` [Example 78, 1-((1R,4R)-5-(4-((4-([1,2,4]triazolo[1,5-a]pyridin-7-yloxy)-2-fluoro-5-methylphenyl)amino)pyrido[3,2-d]pyrimidin-6-yl)-2,5-diazabicyclo[2.2.1]heptan-2-yl)prop-2-en-1-one]: the 50% inhibitory concentration (IC50) in assay [1] (EGFR enzyme) is no less than 10000 nM; in assay [2] (setting [7]), no less than 5000 nM; in assay [3] (ErbB2 WT enzyme), 448 nM; in assay [4] (ErbB2 YVMA phosphorylation) it was 145 nM.

As to `C=CC(=O)N1CCN(c2nc3c(Nc4ccc(Oc5ccc6cn(C)nc6c5)c(C)c4)ncnc3cc2OC)CC1` [Example 158, 1-(4-(7-methoxy-4-((3-methyl-4-((2-methyl-2H-indazol-6-yl)oxy)phenyl)amino)pyrido[3,2-d]pyrimidin-6-yl)piperazin-1-yl)prop-2-en-1-one], the concentration for half-maximal inhibition (IC50) in assay [1] (EGFR enzyme) was 321 nM; in assay [2] (setting [7]), 366 nM; in assay [3] (ErbB2 WT enzyme), 39.1 nM; in assay [4] (ErbB2 YVMA phosphorylation), 16.5 nM.

As for `C=CC(=O)N1C[C@@H]2CC[C@H]1CN2c1ccc2ncnc(Nc3cc(C)c(Oc4cnc5c(c4)ncn5C)cc3F)c2n1` [Example 324], the IC50 in assay [1] (EGFR enzyme assay) turned out to be 419 nM; in assay [2] (setting [5]) it was 276 nM; in assay [3] (ErbB2 WT enzyme assay), 50.8 nM; in assay [4] (setting [6]), 10.2 nM.

On to `C=CC(=O)N1CCCN(c2ccc3ncnc(Nc4ccc(Oc5ccn6ncnc6c5)c(C)c4F)c3n2)CC1(C)C` [Example 259], for which the IC50 was no less than 10000 nM in assay [1] (EGFR enzyme assay), 3430 nM in assay [2] (setting [5]), 20.4 nM in assay [3] (ErbB2 WT enzyme assay) and 78.5 nM in assay [4] (setting [6]).

As for `C=CC(=O)N1CC2CCC(C1)N2c1ccc2ncnc(Nc3ccc(Oc4cnc5c(c4)ncn5C)c(C)c3F)c2n1` [Example 244, 1-(8-(4-((2-fluoro-3-methyl-4-((3-methyl-3H-imidazo[4,5-b]pyridin-6-yl)oxy)phenyl)amino)pyrido[3,2-d]pyrimidin-6-yl)-3,8-diazabicyclo[3.2.1]octan-3-yl)prop-2-en-1-one], the IC50 in assay [1] (EGFR enzyme) came to 178 nM; in assay [2] (setting [7]) it was 317 nM; in assay [3] (ErbB2 WT enzyme) it was 46.4 nM; in assay [4] (ErbB2 YVMA phosphorylation), 16.7 nM.

In the case of `C=CC(=O)N1CCC(Oc2nc3c(Nc4ccc(Oc5ccc6cn(C)nc6c5)c(C)c4F)ncnc3cc2OC)CC1` [Example 151, 1-(4-((4-((2-fluoro-3-methyl-4-((2-methyl-2H-indazol-6-yl)oxy)phenyl)amino)-7-methoxypyrido[3,2-d]pyrimidin-6-yl)oxy)piperidin-1-yl)prop-2-en-1-one], the IC50 in assay [1] (EGFR enzyme) turned out to be 126 nM; in assay [2] (setting [7]) it was 548 nM; in assay [3] (ErbB2 WT enzyme), 41.6 nM; in assay [4] (ErbB2 YVMA phosphorylation), 28.1 nM.
